Our source for the pKa and Kd values is article doi:10.1101/2024.02.27.582382, “Distinct roles of the major binding residues in the cation-binding pocket of MelB” (bioRxiv, 2024).

In one data set the target is Asp59 (UniProt position 59, WDAINDPIMGW). The experiment in a line: ITC. The settings on record: cited from earlier work.
For data set [1], the target named is T1, MelBSt (melibiose permease of Salmonella enterica serovar Typhimurium) (Salmonella enterica, UniProt P30878, D55C).
T1 construct: gene melB
T1 sequence (P30878 whole entry D55C): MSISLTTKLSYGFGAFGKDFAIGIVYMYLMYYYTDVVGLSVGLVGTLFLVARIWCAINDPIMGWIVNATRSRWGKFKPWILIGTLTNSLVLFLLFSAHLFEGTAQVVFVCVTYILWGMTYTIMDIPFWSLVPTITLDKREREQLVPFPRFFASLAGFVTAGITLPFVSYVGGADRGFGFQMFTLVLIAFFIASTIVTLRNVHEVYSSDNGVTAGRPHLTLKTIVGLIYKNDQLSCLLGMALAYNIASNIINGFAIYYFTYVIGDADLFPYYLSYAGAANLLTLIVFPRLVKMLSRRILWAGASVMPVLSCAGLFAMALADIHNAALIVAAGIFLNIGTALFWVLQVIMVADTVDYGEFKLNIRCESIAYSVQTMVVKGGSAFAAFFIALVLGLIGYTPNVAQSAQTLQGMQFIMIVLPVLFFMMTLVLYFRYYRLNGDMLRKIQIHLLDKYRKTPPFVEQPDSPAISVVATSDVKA
The experiment in a line: biochemical. The text has this:
ITC on MelBSt (melibiose permease of Salmonella enterica serovar Typhimurium)

Data set [2] has as its target T2, MelBSt (melibiose permease of Salmonella enterica serovar Typhimurium) (Salmonella enterica, UniProt P30878).
T2 construct: gene melB; full length, C-terminal His10 tag (plasmid pK95 delta-AH/MelBSt/CHis10), expressed in E. coli DW2; modelled residues 2-454 or 2-456
The experiment in a line: ITC. It is filed as binding. The settings on record: pH 8.5, 25 °C, Na+-free, 20 mM Tris-HCl, 100 mM choline chloride, 0.035% UDM.

Like-named read-outs stand apart in the source and are kept apart here.

T2 sequence (P30878 whole entry, the tested form may be a part): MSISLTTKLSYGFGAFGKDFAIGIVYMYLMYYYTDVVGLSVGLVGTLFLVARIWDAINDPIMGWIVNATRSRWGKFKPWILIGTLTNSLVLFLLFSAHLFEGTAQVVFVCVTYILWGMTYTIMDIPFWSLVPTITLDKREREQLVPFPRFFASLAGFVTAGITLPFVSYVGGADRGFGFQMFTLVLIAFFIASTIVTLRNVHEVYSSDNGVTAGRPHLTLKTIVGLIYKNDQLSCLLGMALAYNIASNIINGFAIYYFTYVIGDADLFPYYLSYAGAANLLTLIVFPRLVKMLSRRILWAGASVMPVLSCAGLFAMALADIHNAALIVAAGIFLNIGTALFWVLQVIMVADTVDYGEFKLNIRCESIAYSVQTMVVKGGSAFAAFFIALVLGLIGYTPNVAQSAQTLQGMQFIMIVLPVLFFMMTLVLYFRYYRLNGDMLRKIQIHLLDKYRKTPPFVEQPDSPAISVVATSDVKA

Broadly, the pKa is the negative logarithm of the acid dissociation constant. Turning to “Melibiose permease MelB (MelBSt) (Salmonella enterica serovar Typhimurium)”, the pKa with Asp59 (absence of melibiose (sugar-free)) was 6.25; with Asp59 (presence of melibiose), “approximately 6.5”.

The molecule `O=[N+]([O-])c1ccc(O[C@H]2O[C@H](CO)[C@H](O)[C@H](O)[C@H]2O)cc1` [α-NPG, 4-nitrophenyl-α-D-galactopyranoside] gave a Kd in data set [1] of 0.0151 ± 0.00186 mM.

Consider `OC[C@H]1O[C@H](OC[C@H]2OC(O)[C@H](O)[C@@H](O)[C@@H]2O)[C@H](O)[C@@H](O)[C@H]1O` (some centres unmarked) [melibiose], for which the Kd in data set [1] (read-out: Melibiose, pH 7.5, 25 °C, no Na+ or Li+, UDM) is 5.82 ± 0.46 mM; in data set [2], 8.5 ± 0.21 mM.
